According to patent US20250346616A1 (DIZAL (JIANGSU) PHARMACEUTICAL CO., LTD., priority 2022, published 2025):

Assays:
Recombinant ROCK1 = Recombinant ROCK1 (Homo sapiens (Human), UniProt Q13464); experiment: Lance Ultra Kinase Assay, ROCK1 inhibition; assay type: biochemical; conditions: ATP at Km, 30 min pre-incubation, 1 h reaction
Procedure: (§3) The inhibition potency of compounds against these enzymes was assessed using Lance Ultra Kinase Assay. In brief, recombinant kinases were pre-incubated in the presence or absence of compound at room temperature for 30 minutes. The reaction was initiated by the addition of the ATP (Km) and substrate peptide which could be phosphorylated by kinases in the reaction. After 1 h incubation, the reaction was stopped by the addition of the detection reagent mix containing EDTA. The fluorescence was measured at 615 nm and 665 nm, respectively with excitation wavelength at 320 nm. The calculated signal ratio of 665 nm/615 nm is proportional to the kinase activity.

Recombinant ROCK2 = Recombinant ROCK2 (Homo sapiens (Human), UniProt O75116); experiment: Lance Ultra Kinase Assay, ROCK2 inhibition; assay type: biochemical; conditions: ATP at Km, 30 min pre-incubation, 1 h reaction
Recombinant ROCK2, sequence (O75116 whole entry): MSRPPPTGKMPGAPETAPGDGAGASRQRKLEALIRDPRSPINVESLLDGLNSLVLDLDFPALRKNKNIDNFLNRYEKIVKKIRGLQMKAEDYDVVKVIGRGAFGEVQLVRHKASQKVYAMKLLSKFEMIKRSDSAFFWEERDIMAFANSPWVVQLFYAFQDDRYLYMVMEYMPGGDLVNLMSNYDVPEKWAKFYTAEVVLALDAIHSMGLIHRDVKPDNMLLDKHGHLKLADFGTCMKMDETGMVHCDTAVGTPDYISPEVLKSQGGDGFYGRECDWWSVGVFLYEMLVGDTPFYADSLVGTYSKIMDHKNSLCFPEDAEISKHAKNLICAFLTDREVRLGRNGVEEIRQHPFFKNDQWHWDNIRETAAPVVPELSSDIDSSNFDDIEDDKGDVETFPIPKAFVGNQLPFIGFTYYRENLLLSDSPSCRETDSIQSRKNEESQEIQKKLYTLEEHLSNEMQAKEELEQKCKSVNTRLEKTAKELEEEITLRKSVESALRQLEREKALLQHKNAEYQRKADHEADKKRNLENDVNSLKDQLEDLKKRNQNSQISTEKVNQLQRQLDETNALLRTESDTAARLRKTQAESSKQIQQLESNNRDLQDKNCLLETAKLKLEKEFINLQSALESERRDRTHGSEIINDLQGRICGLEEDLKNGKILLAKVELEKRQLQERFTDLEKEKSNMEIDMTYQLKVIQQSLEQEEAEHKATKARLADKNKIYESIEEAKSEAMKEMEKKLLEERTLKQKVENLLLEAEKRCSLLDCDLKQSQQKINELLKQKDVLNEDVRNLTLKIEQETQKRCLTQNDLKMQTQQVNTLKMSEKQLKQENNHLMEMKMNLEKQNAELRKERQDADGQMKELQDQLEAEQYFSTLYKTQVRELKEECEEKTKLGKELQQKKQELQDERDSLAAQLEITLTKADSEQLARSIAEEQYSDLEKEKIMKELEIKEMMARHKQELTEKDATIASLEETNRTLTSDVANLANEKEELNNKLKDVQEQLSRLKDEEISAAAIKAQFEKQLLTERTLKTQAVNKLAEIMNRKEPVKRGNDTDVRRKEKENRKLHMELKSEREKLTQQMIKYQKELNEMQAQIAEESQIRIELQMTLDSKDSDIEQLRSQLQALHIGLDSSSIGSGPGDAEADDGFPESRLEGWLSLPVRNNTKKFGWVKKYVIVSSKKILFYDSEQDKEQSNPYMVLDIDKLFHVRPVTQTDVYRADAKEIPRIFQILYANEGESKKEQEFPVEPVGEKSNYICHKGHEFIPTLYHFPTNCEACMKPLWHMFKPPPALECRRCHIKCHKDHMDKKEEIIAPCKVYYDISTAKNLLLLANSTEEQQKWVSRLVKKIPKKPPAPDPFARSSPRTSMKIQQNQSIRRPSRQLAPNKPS
Procedure: as §3

pMLC2 = experiment: Cellular PD assay, pMLC2 in PASMC (western blot); assay type: cell-based; conditions: PASMC, 0.5 h; Human Pulmonary Artery Smooth Muscle Cells, 30 min incubation
Procedure: (§1) PASMC (Human Pulmonary Artery Smooth Muscle Cells) were grown in Smooth Muscle Cell Growth medium (Promocell #C-22162). The cells were resuspended at 3×10^5 cells per well in 6-well plate in Smooth Muscle Cell Growth medium (Promocell #C-22162) and incubated compound concentration range: (10000/1111/333/111/37/12.3/4.1/0.41/0 nM) for 30 min.
(§2) Cells were then placed on ice and washed with ice-cold PBS. Cell lysates were prepared with 2×SDS. Separate proteins by SDS-PAGE 2 hr, transfer of proteins form gel to membrane 90 min, Blocking the membrane with 5% milk 1 hr and incubation in primary antibody overnight at 4° C., Incubate the membrane in HRP-conjugated secondary antibody diluted in blocking buffer (1:2000) for 1 hour at room temperature. Detection using Amersham ECL plus western blotting detection system (LAS4000). The purified product was analysed by SDS PAGE and the amount of target protein calculated by gray scanning by Multi-Gauge V3.0 software.

pMYPT1 = experiment: Cellular PD assay, pMYPT1 in PASMC (western blot); assay type: cell-based; conditions: PASMC, 0.5 h; Human Pulmonary Artery Smooth Muscle Cells, 30 min incubation
Procedure: as §1, §2

HepG2 cells = experiment: Cell-based phospholipidosis assay (LipidTOX Red); conditions: Homo sapiens, 24 h, LipidTOX Red dye
Procedure: HepG2 cells were dispensed into Collagen I-coated 96-well black wall/clear bottom assay plates at 5000 cells/90 μL/well.
The assay plates were then incubated at 37° C. for 24 h, […] of 8% paraformaldehyde (4% final) fixative solution containing 8 μg/ml Hoechst 33342 (4 ug/mL final) in DPBS was added to each well. After incubation at room temperature for 25 min, the assay plates were washed with DPBS. The assay plates were sealed and stored at 4° C. before imaging.
The fluorescence intensities (595 nm excitation, 615 nm emission for LipidTOX Red; 352 nm excitation, 461 nm emission for Hoechst 33342) were measured using an High Content Screening System (Operetta, PerkinElmer) with a 10×Fluor objective. […] Average intensities were subjected to Prism and EC50 were calculated.

Recombinant ROCK1, sequence (Q13464 whole entry): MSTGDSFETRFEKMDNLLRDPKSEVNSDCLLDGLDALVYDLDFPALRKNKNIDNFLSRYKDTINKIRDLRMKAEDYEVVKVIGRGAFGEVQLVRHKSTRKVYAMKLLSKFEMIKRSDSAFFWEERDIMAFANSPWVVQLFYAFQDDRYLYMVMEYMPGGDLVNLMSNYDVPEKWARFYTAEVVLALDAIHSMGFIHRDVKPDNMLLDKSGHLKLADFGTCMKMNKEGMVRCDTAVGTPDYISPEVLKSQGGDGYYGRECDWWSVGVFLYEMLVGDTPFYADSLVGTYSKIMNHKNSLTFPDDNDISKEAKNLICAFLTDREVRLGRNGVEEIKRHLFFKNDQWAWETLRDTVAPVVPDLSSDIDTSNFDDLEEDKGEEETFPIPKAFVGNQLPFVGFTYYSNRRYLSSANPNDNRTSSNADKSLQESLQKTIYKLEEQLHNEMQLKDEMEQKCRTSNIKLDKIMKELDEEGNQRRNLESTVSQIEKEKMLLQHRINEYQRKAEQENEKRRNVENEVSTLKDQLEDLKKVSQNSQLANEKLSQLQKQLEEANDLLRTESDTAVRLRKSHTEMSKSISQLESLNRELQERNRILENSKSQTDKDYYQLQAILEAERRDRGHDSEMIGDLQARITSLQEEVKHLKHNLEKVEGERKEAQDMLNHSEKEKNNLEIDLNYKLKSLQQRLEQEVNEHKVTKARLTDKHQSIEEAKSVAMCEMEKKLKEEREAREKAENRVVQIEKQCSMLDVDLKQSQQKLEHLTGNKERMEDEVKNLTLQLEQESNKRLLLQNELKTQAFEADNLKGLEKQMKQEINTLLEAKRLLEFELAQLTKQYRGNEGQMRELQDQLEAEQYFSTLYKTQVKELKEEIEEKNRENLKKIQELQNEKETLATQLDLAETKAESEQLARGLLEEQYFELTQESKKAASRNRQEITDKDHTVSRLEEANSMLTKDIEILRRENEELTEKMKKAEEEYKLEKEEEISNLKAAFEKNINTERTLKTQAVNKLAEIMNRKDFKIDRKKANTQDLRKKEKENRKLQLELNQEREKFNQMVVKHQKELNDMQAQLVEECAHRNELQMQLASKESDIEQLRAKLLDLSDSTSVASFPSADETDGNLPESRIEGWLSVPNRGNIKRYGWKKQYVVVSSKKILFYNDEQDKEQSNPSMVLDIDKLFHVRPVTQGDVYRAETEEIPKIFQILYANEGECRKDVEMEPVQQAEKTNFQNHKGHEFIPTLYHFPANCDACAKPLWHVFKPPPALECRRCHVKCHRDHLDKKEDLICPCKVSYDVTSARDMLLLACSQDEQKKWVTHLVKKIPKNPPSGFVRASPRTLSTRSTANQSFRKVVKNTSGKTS

Compound	IC50 (Recombinant ROCK1)	IC50 (Recombinant ROCK2)	IC50 (pMLC2)	IC50 (pMYPT1)	EC50 (HepG2 cells)
COc1cccc([C@@H](N)C(=O)Nc2cccc3c(-c4cn[nH]c4)c[nH]c23)c1 [Example 42, (2R)-2-amino-2-(3-methoxyphenyl)-N-[3-(1H-pyrazol-4-yl)-1H-indol-7-yl]acetamide]	0.18 nM	0.1 nM	3 nM	2.8 nM	> 200 µM
N#Cc1ccc(C(CN)C(=O)Nc2cccc3c(-c4cn[nH]c4)c[nH]c23)cc1 (single isomer, unassigned) [Example 59, N-(3-(1H-pyrazol-4-yl)-1H-indol-7-yl)-3-amino-2-(4-cyanophenyl)propanamide]	2.7 nM	0.83 nM	61 nM	155 nM	> 66.6 µM
NCC(C(=O)Nc1cccc2c(-c3cn[nH]c3)c[nH]c12)c1ccc(CO)cc1 (single isomer, unassigned) [Example 3, N-(3-(1H-pyrazol-4-yl)-1H-indol-7-yl)-3-amino-2-(4-(hydroxymethyl)phenyl)propanamide]	0.33 nM	0.17 nM	46 nM	99 nM	> 200 µM

The next lines start with results.

IC50 (Recombinant ROCK1)	IC50 (Recombinant ROCK2)	IC50 (pMLC2)	IC50 (pMYPT1)	Compound	EC50 (HepG2 cells)
1.4 nM	0.96 nM	85 nM	153 nM	NCC(C(=O)Nc1cccc2c(-c3cn[nH]c3)c[nH]c12)C1CCOCC1 (single isomer, unassigned) [Example 26, N-(3-(1H-pyrazol-4-yl)-1H-indol-7-yl)-3-amino-2-(tetrahydro-2H-pyran-4-yl)propanamide]	> 200 µM
0.3 nM	0.14 nM	4.2 nM	5.6 nM	COc1cccc(C(CN)C(=O)Nc2cccc3c(-c4cn[nH]c4)c[nH]c23)c1 (single isomer, unassigned) [Example 18, N-(3-(1H-pyrazol-4-yl)-1H-indol-7-yl)-3-amino-2-(3-methoxyphenyl)propanamide]	10.9 µM
